Source: patent publication EP4818168A1, “FUSED RING COMPOUND, PHARMACEUTICAL COMPOSITION THEREOF AND USE THEREOF” (priority 2023, dated 2025)
Read-outs that look alike come from different tables or passages of the source.

Tests used:
H82 cells = assay: cells; type: cell-based; conditions: Homo sapiens
Method in brief: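 H82 cells in RPMI1640 + 10% FBS exposed to compound (0.1% DMSO final) for 6 days at 37 °C, 5% CO2. Viability read by CellTiter-Glo ATP luminescence, normalised to DMSO and medium controls; IC50 from nonlinear regression of the dose–survival curve.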

AURKA = biological target: T1, AURKA (Homo sapiens, UniProt O14965); type: cell-based
T1 construct: endogenous in cells; host or cells: Jurkat cells
T1 sequence (O14965 1-403): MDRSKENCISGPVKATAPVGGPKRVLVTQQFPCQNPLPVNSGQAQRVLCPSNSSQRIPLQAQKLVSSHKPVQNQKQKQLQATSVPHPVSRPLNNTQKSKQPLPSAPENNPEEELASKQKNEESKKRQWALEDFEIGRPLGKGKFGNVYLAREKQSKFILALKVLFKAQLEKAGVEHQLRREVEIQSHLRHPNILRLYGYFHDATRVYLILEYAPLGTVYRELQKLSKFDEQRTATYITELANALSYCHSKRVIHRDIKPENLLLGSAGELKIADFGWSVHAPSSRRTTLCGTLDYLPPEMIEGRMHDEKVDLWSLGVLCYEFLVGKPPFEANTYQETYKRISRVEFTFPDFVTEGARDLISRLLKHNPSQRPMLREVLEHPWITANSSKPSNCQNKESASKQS
Method in brief: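 Jurkat cells seeded at 1×10^6 cells/500 µL and treated with compound; lysates run on SDS-PAGE, blotted to nitrocellulose and probed overnight at 4°C for AURKA. Chemiluminescent or fluorescent band intensity fitted to a curve to give DC50 for protein degradation.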

[1] = NCI-H82, H82 cells, 4000 cells/well, CellTiter-Glo, read-out: IC50 in H82 Cells
[2] = 100 nM compound, Jurkat cells, 24 h, Table 2
[3] = 1 µM compound, Jurkat cells, 24 h, Table 2

SMILES | IC50 (H82 cells; [1]) [nM] | Percentage of AURKA Degradation Induced by 100 nM Compound in Jurkat Cells (AURKA; [2]) | Percentage of AURKA Degradation Induced by 1 µM Compound in Jurkat Cells (AURKA; [3]) | IC50 (H82 cells; NCI-H82, read-out: IC50 in H82 Cells) [nM] | Percentage of AURKA Degradation Induced by 100 nM Compound in Jurkat Cells (AURKA) | Percentage of AURKA Degradation Induced by 1 µM Compound in Jurkat Cells (AURKA)
O=C1CCN(c2ccc(N3CCC(N4CCN(c5ccc(Nc6ncc7c(n6)-c6ccc(Cl)cc6C(c6c(F)cccc6F)=NC7)cc5)C5(CC5)C4)CC3)nc2)C(=O)N1 [Compound A217] | < 1000 | + (Degradation ≤ 30%) | + (Degradation ≤ 30%) |  |  | 
O=C1CCN(c2ccc(N3CC(CN4CCN(C56CC(Nc7ncc8c(n7)-c7ccc(Cl)cc7C(c7c(F)cccc7F)=NC8)(C5)C6)CC4)C3)nc2)C(=O)N1 [Compound A219] | < 1000 | +++ (Degradation > 70%) | +++ (Degradation > 70%) |  |  | 
O=C1CCN(c2cccc(N3CCC(N4CC5(CN(c6cccc(Nc7ncc8c(n7)-c7ccc(Cl)cc7C(c7c(F)cccc7F)=NC8)c6)C5)C4)CC3)c2)C(=O)N1 [Compound A223] |  |  |  | < 1000 | +++ (key: +: Degradation ≤ 30%; ++: 30% < Degradation ≤ 70%; +++: Degradation > 70%) | +++ (key: +: Degradation ≤ 30%; ++: 30% < Degradation ≤ 70%; +++: Degradation > 70%)
CN1CCN(CC2CN(c3cncc(N4CCC(=O)NC4=O)c3)C2)Cc2cc(Nc3ncc4c(n3)-c3ccc(Cl)cc3C(c3c(F)cccc3F)=NC4)ccc21 [Compound A225] | < 1000 | +++ (Degradation > 70%) | + (Degradation ≤ 30%) |  |  | 
O=C1CCN(c2ccc(N3CCC(N4CCN(C56CC(Nc7ncc8c(n7)-c7ccc(Cl)cc7C(c7c(F)cccc7F)=NC8)(C5)C6)CC4)C3)nc2)C(=O)N1 (stereo not drawn) [Compound A227] | < 1000 | ++ (30% < Degradation ≤ 70%) | + (Degradation ≤ 30%) |  |  | 
O=C1CCN(c2ccc(N3CCC(C(=O)N4CCN(c5ccc(Nc6ncc7c(n6)-c6ccc(Cl)cc6C(c6c(F)cccc6F)=NC7)cc5)CC4)CC3)nc2)C(=O)N1 [Compound A229] | < 1000 | +++ (Degradation > 70%) | +++ (Degradation > 70%) |  |  | 
O=C1CCN(c2ccc(N3CCC(CN4CCN(C56CC(Nc7ncc8c(n7)-c7ccc(Cl)cc7C(c7c(F)cccc7F)=NC8)(C5)C6)CC4)C3)nc2)C(=O)N1 (stereo not drawn) [Compound A231] | < 1000 | +++ (Degradation > 70%) | +++ (Degradation > 70%) |  |  | 
O=C1CCN(c2ccc(N3CCC(N4CCN(c5ccc(Nc6ncc7c(n6)-c6ccc(Cl)cc6C(c6c(F)cccc6F)=NC7)cc5)C5(COC5)C4)CC3)nc2)C(=O)N1 [Compound A233] | < 1000 | ++ (30% < Degradation ≤ 70%) | +++ (Degradation > 70%) |  |  | 
O=C1CCN(c2cccc(N3CC(C(=O)N4CCOc5ccc(Nc6ncc7c(n6)-c6ccc(Cl)cc6C(c6c(F)cccc6F)=NC7)cc5C4)C3)c2)C(=O)N1 [Compound A235] | < 1000 | ++ (30% < Degradation ≤ 70%) | + (Degradation ≤ 30%) |  |  | 
CN1CCN(CC2CN(c3cccc(N4CCC(=O)NC4=O)c3)C2)Cc2cc(Nc3ncc4c(n3)-c3ccc(Cl)cc3C(c3c(F)cccc3F)=NC4)ccc21 [Compound A236] | < 1000 | +++ (Degradation > 70%) | ++ (30% < Degradation ≤ 70%) |  |  | 
O=C1CCN(c2cccc(N3CC(CN4CCOc5ccc(Nc6ncc7c(n6)-c6ccc(Cl)cc6C(c6c(F)cccc6F)=NC7)cc5C4)C3)c2)C(=O)N1 [Compound A237] | < 1000 | +++ (Degradation > 70%) | +++ (Degradation > 70%) |  |  | 
CN1CCN(CC2CCN(c3cccc(N4CCC(=O)NC4=O)c3)CC2)Cc2cc(Nc3ncc4c(n3)-c3ccc(Cl)cc3C(c3c(F)cccc3F)=NC4)ccc21 [Compound A239] | < 1000 | +++ (Degradation > 70%) | +++ (Degradation > 70%) |  |  | 
O=C1CCN(c2cccc(N3CCC(CN4CCOc5ccc(Nc6ncc7c(n6)-c6ccc(Cl)cc6C(c6c(F)cccc6F)=NC7)cc5C4)CC3)c2)C(=O)N1 [Compound A240] | < 1000 | +++ (Degradation > 70%) | +++ (Degradation > 70%) |  |  | 
O=C1CCN(c2ccc(N3CCN(C(=O)C4CCN(C56CC(Nc7ncc8c(n7)-c7ccc(Cl)cc7C(c7c(F)cccc7F)=NC8)(C5)C6)CC4)CC3)nc2)C(=O)N1 [Compound A243] | < 1000 | +++ (Degradation > 70%) | +++ (Degradation > 70%) |  |  | 
Cn1nc(N2CCC(=O)NC2=O)c2cc(F)c(N3CCN(C4CN(c5cccc(Nc6ncc7c(n6)-c6ccc(Cl)cc6C(c6c(F)cccc6F)=NC7)c5)C4)CC3)cc21 [Compound A244] | < 1000 | ++ (30% < Degradation ≤ 70%) | +++ (Degradation > 70%) |  |  | 
Cn1nc(N2CCC(=O)NC2=O)c2cc(F)c(N3CCN(CC4CN(c5cccc(Nc6ncc7c(n6)-c6ccc(Cl)cc6C(c6c(F)cccc6F)=NC7)c5)C4)CC3)cc21 [Compound A245] | < 1000 | +++ (Degradation > 70%) | +++ (Degradation > 70%) |  |  | 
O=C1CCN(c2ccc(N3CCN(CC4CN(c5ccc(Nc6ncc7c(n6)-c6ccc(Cl)cc6C(c6c(F)cccc6F)=NC7)cn5)C4)CC3)nc2)C(=O)N1 [Compound A248] | < 1000 | +++ (Degradation > 70%) | +++ (Degradation > 70%) |  |  | 
O=C1CCN(c2ccc(C3CCN(CC4CN(c5ccc(Nc6ncc7c(n6)-c6ccc(Cl)cc6C(c6c(F)cccc6F)=NC7)cc5)C4)CC3)nc2)C(=O)N1 [Compound A249] | < 1000 | +++ (Degradation > 70%) | +++ (Degradation > 70%) |  |  | 
O=C1CCN(c2ccc(N3CCC(CN4CCN(C56CC(Nc7ncc8c(n7)-c7ccc(Cl)cc7C(c7c(F)cccc7F)=NC8)(C5)C6)C(=O)C4)CC3)nc2)C(=O)N1 [Compound A250] | < 1000 | +++ (Degradation > 70%) | +++ (Degradation > 70%) |  |  | 
N#CC1CN(C2CCN(c3ccc(N4CCC(=O)NC4=O)cn3)CC2)CCN1c1ccc(Nc2ncc3c(n2)-c2ccc(Cl)cc2C(c2c(F)cccc2F)=NC3)cc1 (stereo not drawn) [Compound A251] | < 1000 | +++ (Degradation > 70%) | +++ (Degradation > 70%) |  |  | 
O=C1CCN(c2ccc(N3CCN(C4(C5CN(c6ccc(Nc7ncc8c(n7)-c7ccc(Cl)cc7C(c7c(F)cccc7F)=NC8)cc6)C5)CC4)CC3)nc2)C(=O)N1 [Compound A252] | < 1000 | +++ (Degradation > 70%) | +++ (Degradation > 70%) |  |  | 
